Assay results from patent US20180370927A1, “MICROBIOCIDAL OXADIAZOLE DERIVATIVES” (SYNGENTA PARTICIPATIONS AG, priority 2015, published 2018).

How the values were obtained:
[1] = tested on: Puccinia recondita f. Sp. Tritici; experiment: Puccinia recondita f. sp. tritici / wheat / leaf disc curative (brown rust); assay type: in vivo; conditions: foliar, 200 ppm in the applied formulation, wheat leaf segments, curative (applied 1 day after inoculation), assessed 6 to 8 days after application, read-out: disease control compared to untreated control leaf disks
Procedure: (§1) Leaf disks or leaf segments of various plant species are cut from plants grown in a greenhouse. The cut leaf disks or segments are placed in multiwell plates (24-well format) onto water agar. The leaf disks are sprayed with a test solution before (preventative) or after (curative) inoculation. Compounds to be tested are prepared as DMSO solutions (max. 10 mg/mL) which are diluted to the appropriate concentration with 0.025% Tween20 just before spraying. The inoculated leaf disks or segments are incubated under defined conditions (temperature, relative humidity, light, etc.) according to the respective test system. A single evaluation of disease level is carried out 3 to 14 days after inoculation, depending on the pathosystem. Percent disease control relative to the untreated check leaf disks or segments is then calculated.
Example 2: Fungicidal Activity Against Puccinia recondita f. Sp. Tritici/Wheat/Leaf Disc Curative (Brown Rust)
Wheat leaf segments cv. Kanzler are placed on agar in multiwell plates (24-well format). The leaf segments are then inoculated with a spore suspension of the fungus. Plates were stored in darkness at 19° C. and 75% relative humidity. The formulated test compound diluted in water was applied 1 day after inoculation. The leaf segments were incubated at 19° C. and 75% relative humidity under a light regime of 12 hours light/12 hours darkness in a climate cabinet and the activity of a compound was assessed as percent disease control compared to untreated when an appropriate level of disease damage appears in untreated check leaf segments (6 to 8 days after application).
(§2) The following compounds at 200 ppm in the applied formulation give at least 80% disease control in this test when compared to untreated control leaf disks under the same conditions, which show extensive disease development.

[2] = tested on: Puccinia recondita f. Sp. Tritici; experiment: Puccinia recondita f. sp. tritici / wheat / leaf disc preventative (brown rust); assay type: in vivo; conditions: foliar, 200 ppm in the applied formulation, wheat leaf segments, preventative, assessed 7 to 9 days after application, read-out: disease control compared to untreated control leaf disks
Procedure: as §1
Example 1: Fungicidal Activity Against Puccinia recondita f. Sp. Tritici/Wheat/Leaf Disc Preventative (Brown Rust)
Wheat leaf segments cv. Kanzler were placed on agar in multiwell plates (24-well format) and sprayed with the formulated test compound diluted in water. The leaf disks were inoculated with a spore suspension of the fungus 1 day after application. The inoculated leaf segments were incubated at 19° C. and 75% relative humidity (rh) under a light regime of 12 hours light/12 hours darkness in a climate cabinet and the activity of a compound was assessed as percent disease control compared to untreated when an appropriate level of disease damage appears in untreated check leaf segments (7 to 9 days after application).
as §2

[3] = tested on: Glomerella lacenarium (Colletotrichum lacenarium); experiment: Glomerella lacenarium (Colletotrichum lacenarium) liquid culture / cucumber / preventative (anthracnose); assay type: cell-based; conditions: 20 ppm in the applied formulation, liquid culture in PDB, 24° C., 3 to 4 days after application, read-out: disease control (inhibition of growth, photometric) compared to untreated control
Procedure: Mycelia fragments or conidia suspensions of a fungus prepared either freshly from liquid cultures of the fungus or from cryogenic storage, are directly mixed into nutrient broth. DMSO solutions of the test compound (max. 10 mg/ml) are diluted with 0.025% Tween20 by a factor of 50 and 10 μL of this solution is pipetted into a microtiter plate (96-well format). The nutrient broth containing the fungal spores/mycelia fragments is then added to give an end concentration of the tested compound. The test plates are incubated in the dark at 24° C. and 96% relative humidity. The inhibition of fungal growth is determined photometrically after 2 to 7 days, depending on the pathosystem, and percent antifungal activity relative to the untreated check is calculated.
Example 4: Fungicidal Activity Against Glomerella lacenarium (Colletotrichum lacenarium) Liquid Culture/Cucumber/Preventative (Anthracnose)
Conidia of the fungus from cryogenic storage are directly mixed into nutrient broth (PDB—potato dextrose broth). After placing a (DMSO) solution of test compound into a microtiter plate (96-well format), the nutrient broth containing the fungal spores is added. The test plates are incubated at 24° C. and the inhibition of growth is measured photometrically 3 to 4 days after application.
The following compounds at 20 ppm in the applied formulation give at least 80% disease control in this test when compared to untreated control under the same conditions, which show extensive disease development.

NC(=O)C(=O)N(Cc1ccc(-c2noc(C(F)(F)F)n2)cc1)CC1CCCO1 (stereo not drawn) [Compound 4.14, N′-(tetrahydrofuran-2-ylmethyl)-N′-[[4-[5-(trifluoromethyl)-1,2,4-oxadiazol-3-yl]phenyl]methyl] oxamide]
≥ 80%: pest or weed control at 200 ppm [1] | pest or weed control at 200 ppm [2] | inhibition at 20 ppm [3]

COC(=O)C(=O)N(Cc1ccc(-c2noc(C(F)(F)F)n2)cc1)OC [Compound 3.2, methyl 2-[methoxy-[[4[5-(trifluoromethyl)-1,2,4-oxadiazol-3-yl]phenyl]methyl]amino]-2-oxo-acetate]
≥ 80%: pest or weed control at 200 ppm [1] | pest or weed control at 200 ppm [2] | inhibition at 20 ppm [3]

CN(C)C(=O)C(=O)N(Cc1ccc(-c2noc(C(F)(F)F)n2)cc1)Cc1ccco1 [Compound 4.23, N′-(2-furylmethyl)-N,N-dimethyl-N′-[[4-[5-(trifluoromethyl)-1,2,4-oxadiazol-3-yl]phenyl]methyl] oxamide]
≥ 80%: pest or weed control at 200 ppm [1] | pest or weed control at 200 ppm [2] | inhibition at 20 ppm [3]

CCCNC(=O)C(=O)N(Cc1ccc(-c2noc(C(F)(F)F)n2)cc1)OC [Compound 4.77, N′-methoxy-N-propyl-N′-[[4-[5-(trifluoromethyl)-1,2,4-oxadiazol-3-yl]phenyl]methyl] oxamide]
≥ 80%: pest or weed control at 200 ppm [1] | pest or weed control at 200 ppm [2] | inhibition at 20 ppm [3]

CCC(C)N(Cc1ccc(-c2noc(C(F)(F)F)n2)cc1)C(=O)C(N)=O (stereo not drawn) [Compound 4.13, N′-sec-butyl-N′-[[4-[5-(trifluoromethyl)-1,2,4-oxadiazol-3-yl]phenyl]methyl] oxamide]
≥ 80%: pest or weed control at 200 ppm [1] | pest or weed control at 200 ppm [2] | inhibition at 20 ppm [3]

CCCC(=O)C(=O)N(CCOC)Cc1ccc(-c2noc(C(F)(F)F)n2)cc1 [Compound 1.9, N-(2-methoxyethyl)-2-oxo-N-[[4-[5-(trifluoromethyl)-1,2,4-oxadiazol-3-yl]phenyl]methyl]pentanamide]
≥ 80%: pest or weed control at 200 ppm [1] | pest or weed control at 200 ppm [2] | inhibition at 20 ppm [3]

CCN(Cc1ccc(-c2noc(C(F)(F)F)n2)cc1)C(=O)C(=O)NOC [Compound 4.107, N'-ethyl-N-methoxy-N′-N′-[[4-[5-(trifluoromethyl)-1,2,4-oxadiazol-3-yl]phenyl]methyl] oxamide]
≥ 80%: pest or weed control at 200 ppm [1] | pest or weed control at 200 ppm [2] | inhibition at 20 ppm [3]

CONC(=O)C(=O)N(Cc1ccc(-c2noc(C(F)(F)F)n2)cc1)C1CC1 [Compound 4.103, N′-cyclopropyl-N-methoxy-N′-[[4-[5-(trifluoromethyl)-1,2,4-oxadiazol-3-yl]phenyl]methyl] oxamide]
≥ 80%: pest or weed control at 200 ppm [1] | pest or weed control at 200 ppm [2] | inhibition at 20 ppm [3]

CON(Cc1ccc(-c2noc(C(F)(F)F)n2)cc1)C(=O)C(=O)NC(C)(C)C [Compound 4.75, N-tert-butyl-N′-methoxy-N′-[[4-[5-(trifluoromethyl)-1,2,4-oxadiazol-3-yl]phenyl]methyl] oxamide]
≥ 80%: pest or weed control at 200 ppm [1] | pest or weed control at 200 ppm [2] | inhibition at 20 ppm [3]

CCC(=O)C(=O)NCc1ccc(-c2noc(C(F)(F)F)n2)cc1C [Compound 1.85, N-[[2-methyl-4-[5-(trifluoromethyl)-1,2,4-oxadiazol-3-yl]phenyl]methyl]-2-oxo-butanamide]
≥ 80%: pest or weed control at 200 ppm [1] | pest or weed control at 200 ppm [2] | inhibition at 20 ppm [3]

CON(Cc1ccc(-c2noc(C(F)(F)F)n2)cc1)C(=O)C(=O)NC(C)C [Compound 4.64, N-isopropyl-N′-methoxy-N′-[[4-[5-(trifluoromethyl)-1,2,4-oxadiazol-3-yl]phenyl]methyl] oxamide]
≥ 80%: pest or weed control at 200 ppm [1] | pest or weed control at 200 ppm [2] | inhibition at 20 ppm [3]

CONC(=O)C(=O)N(C)Cc1ccc(-c2noc(C(F)(F)F)n2)cc1 [Compound 4.102, N-methoxy-N′-methyl-N′-[[4-[5-(trifluoromethyl)-1,2,4-oxadiazol-3-yl]phenyl]methyl] oxamide]
≥ 80%: pest or weed control at 200 ppm [1] | pest or weed control at 200 ppm [2] | inhibition at 20 ppm [3]

CON(Cc1ccc(-c2noc(C(F)(F)F)n2)cc1)C(=O)C(=O)NCC(C)C [Compound 4.67, N-isobutyl-N′-methoxy-N′-[[4-[5-(trifluoromethyl)-1,2,4-oxadiazol-3-yl]phenyl]methyl] oxamide]
≥ 80%: pest or weed control at 200 ppm [1] | pest or weed control at 200 ppm [2] | inhibition at 20 ppm [3]

CON(Cc1ccc(-c2noc(C(F)(F)F)n2)cc1)C(=O)C(=O)NCC(C)(C)C [Compound 4.62, N-(2,2-dimethylpropyl)-N′-methoxy-N′-[[4-[5-(trifluoromethyl)-1,2,4-oxadiazol-3-yl]phenyl]methyl] oxamide]
≥ 80%: pest or weed control at 200 ppm [1] | pest or weed control at 200 ppm [2] | inhibition at 20 ppm [3]

CNC(=O)C(=O)N(Cc1ccc(-c2noc(C(F)(F)F)n2)cc1)C1CC1 [Compound 4.100, N′-cyclopropyl-N-methyl-N′-[[4-[5-(trifluoromethyl)-1,2,4-oxadiazol-3-yl]phenyl]methyl] oxamide]
≥ 80%: pest or weed control at 200 ppm [1] | pest or weed control at 200 ppm [2] | inhibition at 20 ppm [3]

CON(Cc1ccc(-c2noc(C(F)(F)F)n2)cc1)C(=O)C(=O)NC1CC1 [Compound 4.68, N-cyclopropyl-N′-methoxy-N′-[[4-[5-(trifluoromethyl)-1,2,4-oxadiazol-3-yl]phenyl]methyl] oxamide]
≥ 80%: pest or weed control at 200 ppm [1] | pest or weed control at 200 ppm [2] | inhibition at 20 ppm [3]

CON(C)C(=O)C(=O)NCc1ccc(-c2noc(C(F)(F)F)n2)cc1 [Compound 4.48, N′-methoxy-N′-methyl-N-[[4-[5-(trifluoromethyl)-1,2,4-oxadiazol-3-yl]phenyl]methyl] oxamide]
≥ 80%: pest or weed control at 200 ppm [1] | pest or weed control at 200 ppm [2] | inhibition at 20 ppm [3]

CC(=O)C(=O)N(Cc1ccc(-c2noc(C(F)(F)F)n2)cc1)CC1CCCO1 (stereo not drawn) [Compound 1.14, 2-oxo-N-(tetrahydrofuran-2-ylmethyl)-N-[[4-[5-(trifluoromethyl)-1,2,4-oxadiazol-3-yl]phenyl]methyl]propanamide]
≥ 80%: pest or weed control at 200 ppm [1] | pest or weed control at 200 ppm [2] | inhibition at 20 ppm [3]

CC(=O)C(=O)NCc1ccc(-c2noc(C(F)(F)F)n2)cc1F [Compound 1.26, N-[[2-fluoro-4-[5-(trifluoromethyl)-1,2,4-oxadiazol-3-yl]phenyl]methyl]-2-oxo-propanamide]
≥ 80%: pest or weed control at 200 ppm [1] | pest or weed control at 200 ppm [2] | inhibition at 20 ppm [3]

CONC(=O)C(=O)N(Cc1ccc(-c2noc(C(F)(F)F)n2)cc1)OC [Compound 4.78, N,N′-dimethoxy-N′-[[4-[5-(trifluoromethyl)-1,2,4-oxadiazol-3-yl]phenyl]methyl] oxamide]
≥ 80%: pest or weed control at 200 ppm [1] | pest or weed control at 200 ppm [2] | inhibition at 20 ppm [3]

COC(CN(C)C(=O)C(=O)Nc1ccc(-c2noc(C(F)(F)F)n2)cc1)OC [Compound 4.21, N′-(2,2-dimethoxyethyl)-N'-methyl-N-[4-[5-(trifluoromethyl)-1,2,4-oxadiazol-3-yl]phenyl] oxamide]
≥ 80%: pest or weed control at 200 ppm [1] | pest or weed control at 200 ppm [2] | inhibition at 20 ppm [3]
